As a reminder, the Ki is the dissociation constant of the complex between target and ligand, obtained from inhibition or displacement.

We go through 5 compounds from patent US8999940B2 (Ipsen Pharma S.A.S., priority 2008, dated 2015).

Data set [1] addresses T1, human recombinant GIP receptor (Homo sapiens, UniProt P48546).
T1 construct: expressed in transfected cells; host or cells: CHO-K1 clonal cells (membrane preparation)
T1 sequence (P48546 22-466): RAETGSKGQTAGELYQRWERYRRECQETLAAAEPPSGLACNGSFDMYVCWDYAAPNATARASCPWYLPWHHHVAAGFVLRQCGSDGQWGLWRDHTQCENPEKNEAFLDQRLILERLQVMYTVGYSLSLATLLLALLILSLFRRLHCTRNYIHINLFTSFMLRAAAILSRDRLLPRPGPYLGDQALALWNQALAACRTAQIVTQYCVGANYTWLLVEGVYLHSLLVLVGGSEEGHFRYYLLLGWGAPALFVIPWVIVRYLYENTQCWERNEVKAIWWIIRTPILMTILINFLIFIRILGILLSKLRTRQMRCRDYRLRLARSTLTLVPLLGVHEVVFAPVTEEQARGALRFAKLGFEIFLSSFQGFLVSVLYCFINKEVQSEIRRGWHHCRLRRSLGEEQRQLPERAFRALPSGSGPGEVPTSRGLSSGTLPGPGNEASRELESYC
As to the kind of experiment: In vitro hGIP receptor binding assay. On the procedure:
A. In Vitro hGIP Receptor Binding Assay […] The incubations were terminated by rapid filtration through GF/C filters (pre-soaked in 0.5% polyethylenimine) using a Brandel filtration manifold. Each tube and filter were then washed three times with 5-ml aliquots of ice-cold buffer.

The nature of data set [2]: Human plasma half-life assay. It is filed as in vitro ADME. The conditions noted are these: 37° C., LC-MS, read-out: Human Plasma T½ (converted).
A short description of data set [3]: Rat plasma half-life assay. It is filed as in vitro ADME. The conditions noted are these: 37° C., LC-MS, read-out: Rat Plasma T½ (converted).

Turning to `CC[C@H](C)[C@H](NC(=O)[C@H](CCCCN)NC(=O)[C@H](CC(=O)O)NC(=O)[C@H](CCSC)NC(=O)[C@H](C)NC(=O)[C@@H](NC(=O)C1(NC(=O)[C@H](Cc2ccc(O)cc2)NC(=O)[C@H](CC(=O)O)NC(=O)[C@H](CO)NC(=O)[C@@H](NC(=O)[C@H](Cc2ccccc2)NC(=O)[C@@H](NC(=O)CNC(=O)[C@H](CCC(=O)O)NC(=O)C(C)(C)NC(=O)[C@@H](N)Cc2ccc(C#N)cc2)[C@@H](C)O)[C@@H](C)CC)CCCC1)[C@@H](C)CC)C(=O)N[C@@H](Cc1c[nH]cn1)C(=O)N[C@@H](CCC(N)=O)C(=O)N[C@@H](CCC(N)=O)C(=O)N[C@@H](CC(=O)O)C(=O)N[C@@H](Cc1ccccc1)C(=O)N[C@H](C(=O)N[C@@H](CC(N)=O)C(=O)N[C@@H](Cc1c[nH]c2ccccc12)C(=O)N[C@@H](CC(C)C)C(=O)N[C@@H](CC(C)C)C(=O)N[C@@H](C)C(=O)N[C@@H](CCC(N)=O)C(=O)N[C@@H](CCCCN)C(=O)NCC(=O)N[C@@H](CCCCN)C(=O)N[C@@H](CCCCN)C(=O)N[C@@H](CC(N)=O)C(=O)N[C@@H](CC(=O)O)C(=O)N[C@@H](Cc1c[nH]c2ccccc12)C(=O)N[C@@H](CCCCN)C(=O)N[C@@H](Cc1c[nH]cn1)C(=O)N[C@@H](CC(N)=O)C(=O)N[C@H](C(=O)NC1(C(=O)N[C@@H](CCC(N)=O)C(=O)O)CCCC1)[C@@H](C)CC)C(C)C` [Example 38, (4CN-Phe^1, Aib^2, A5c^11, 41)hGIP(1-42)-OH], the Ki in data set [1] is 14.4 nM. The half-life at 0.1 mg/ml in data set [2] is 16.4 h; in data set [3], more than 72 h.
With `CC[C@H](C)[C@H](NC(=O)[C@H](CCCCN)NC(=O)[C@H](CC(=O)O)NC(=O)[C@H](CCSC)NC(=O)[C@H](C)NC(=O)[C@@H](NC(=O)C1(NC(=O)[C@H](Cc2ccc(O)cc2)NC(=O)[C@H](CC(=O)O)NC(=O)[C@H](CO)NC(=O)[C@@H](NC(=O)[C@H](Cc2ccccc2)NC(=O)[C@@H](NC(=O)CNC(=O)[C@H](CCC(=O)O)NC(=O)C(C)(C)NC(=O)[C@@H](N)Cc2cccc(F)c2)[C@@H](C)O)[C@@H](C)CC)CCCC1)[C@@H](C)CC)C(=O)N[C@@H](Cc1c[nH]cn1)C(=O)N[C@@H](CCC(N)=O)C(=O)N[C@@H](CCC(N)=O)C(=O)N[C@@H](CC(=O)O)C(=O)N[C@@H](Cc1ccccc1)C(=O)N[C@H](C(=O)N[C@@H](CC(N)=O)C(=O)N[C@@H](Cc1c[nH]c2ccccc12)C(=O)N[C@@H](CC(C)C)C(=O)N[C@@H](CC(C)C)C(=O)N[C@@H](C)C(=O)N[C@@H](CCC(N)=O)C(=O)N[C@@H](CCCCN)C(=O)NCC(=O)N[C@@H](CCCCN)C(=O)N[C@@H](CCCCN)C(=O)N[C@@H](CC(N)=O)C(=O)N[C@@H](CC(=O)O)C(=O)N[C@@H](Cc1c[nH]c2ccccc12)C(=O)N[C@@H](CCCCN)C(=O)N[C@@H](Cc1c[nH]cn1)C(=O)N[C@@H](CC(N)=O)C(=O)N[C@H](C(=O)NC1(C(=O)N[C@@H](CCC(N)=O)C(=O)O)CCCC1)[C@@H](C)CC)C(C)C` [Example 41, (3F-Phe^1, Aib^2, A5c^11, 41)hGIP(1-42)-OH], in data set [1], the Ki is 5.43 nM. In addition, the half-life at 0.1 mg/ml in data set [2] was 63.6 h; in data set [3], more than 66 h.
As for `CC[C@H](C)[C@H](NC(=O)[C@H](CCCCN)NC(=O)[C@H](CC(=O)O)NC(=O)[C@H](CCSC)NC(=O)[C@H](C)NC(=O)[C@@H](NC(=O)C1(NC(=O)[C@H](Cc2ccc(O)cc2)NC(=O)[C@H](CC(=O)O)NC(=O)[C@H](CO)NC(=O)[C@@H](NC(=O)[C@H](Cc2ccccc2)NC(=O)[C@@H](NC(=O)CNC(=O)[C@H](CCC(=O)O)NC(=O)C(C)(C)NC(=O)[C@@H](N)Cc2c(C)cc(O)cc2C)[C@@H](C)O)[C@@H](C)CC)CCCC1)[C@@H](C)CC)C(=O)N[C@@H](Cc1c[nH]cn1)C(=O)N[C@@H](CCC(N)=O)C(=O)N[C@@H](CCC(N)=O)C(=O)N[C@@H](CC(=O)O)C(=O)N[C@@H](Cc1ccccc1)C(=O)N[C@H](C(=O)N[C@@H](CC(N)=O)C(=O)N[C@@H](Cc1c[nH]c2ccccc12)C(=O)N[C@@H](CC(C)C)C(=O)N[C@@H](CC(C)C)C(=O)N[C@@H](C)C(=O)N[C@@H](CCC(N)=O)C(=O)N[C@@H](CCCCN)C(=O)NCC(=O)N[C@@H](CCCCN)C(=O)N[C@@H](CCCCN)C(=O)N[C@@H](CC(N)=O)C(=O)N[C@@H](CC(=O)O)C(=O)N[C@@H](Cc1c[nH]c2ccccc12)C(=O)N[C@@H](CCCCN)C(=O)N[C@@H](Cc1c[nH]cn1)C(=O)N[C@@H](CC(N)=O)C(=O)N[C@H](C(=O)N[C@H](C(=O)N[C@@H](CCC(N)=O)C(=O)N[C@@H](Cc1c[nH]cn1)C(=O)O)[C@@H](C)O)[C@@H](C)CC)C(C)C` [Example 53, (2,6Me-Tyr^1, Aib^2, A5c^11, His^43)hGIP(1-43)-OH], in data set [1], the Ki came out at 35 nM. Moreover, the half-life at 0.1 mg/ml in data set [2] is 20 h; in data set [3], 23.2 h.
In the case of `CC[C@H](C)[C@H](NC(=O)[C@H](CCCCN)NC(=O)[C@H](CC(=O)O)NC(=O)C1(NC(=O)[C@H](C)NC(=O)[C@@H](NC(=O)C2(NC(=O)[C@H](Cc3ccc(O)cc3)NC(=O)[C@H](CC(=O)O)NC(=O)[C@H](CO)NC(=O)[C@@H](NC(=O)[C@H](Cc3ccccc3)NC(=O)[C@@H](NC(=O)CNC(=O)[C@H](CCC(=O)O)NC(=O)C(C)(C)NC(=O)[C@@H](N)Cc3c(C)cc(O)cc3C)[C@@H](C)O)[C@@H](C)CC)CCCC2)[C@@H](C)CC)CCCC1)C(=O)N[C@@H](Cc1c[nH]cn1)C(=O)N[C@@H](CCC(N)=O)C(=O)N[C@@H](CCC(N)=O)C(=O)N[C@@H](CC(=O)O)C(=O)N[C@@H](Cc1ccccc1)C(=O)N[C@H](C(=O)N[C@@H](CC(N)=O)C(=O)N[C@@H](Cc1c[nH]c2ccccc12)C(=O)N[C@@H](CC(C)C)C(=O)N[C@@H](CC(C)C)C(=O)N[C@@H](C)C(=O)N[C@@H](CCC(N)=O)C(=O)N[C@@H](CCCCN)C(=O)NCC(=O)N[C@@H](CCCCN)C(=O)N[C@@H](CCCCN)C(=O)N[C@@H](CC(N)=O)C(=O)N[C@@H](CC(=O)O)C(=O)N[C@@H](Cc1c[nH]c2ccccc12)C(=O)N[C@@H](CCCCN)C(=O)N[C@@H](Cc1c[nH]cn1)C(=O)N[C@@H](CC(N)=O)C(=O)N[C@H](C(=O)N[C@H](C(=O)N[C@@H](CCC(N)=O)C(=O)N[C@@H](Cc1c[nH]cn1)C(=O)O)[C@@H](C)O)[C@@H](C)CC)C(C)C` [Example 54, (2,6Me-Tyr^1, Aib^2, A5c^11, 14, His^43)hGIP(1-43)-OH], the Ki in data set [1] was 50.2 nM. Besides, the half-life at 0.1 mg/ml in data set [2] is more than 50 h; in data set [3], 21.5 h.
As for `CCCC[C@H](NC(=O)[C@H](C)NC(=O)[C@@H](NC(=O)C1(NC(=O)[C@H](Cc2ccc(O)cc2)NC(=O)[C@H](CC(=O)O)NC(=O)[C@H](CO)NC(=O)[C@@H](NC(=O)[C@H](Cc2ccccc2)NC(=O)[C@@H](NC(=O)CNC(=O)[C@H](CCC(=O)O)NC(=O)C(C)(C)NC(=O)[C@@H](N)Cc2c(C)cc(O)cc2C)[C@@H](C)O)[C@@H](C)CC)CCCC1)[C@@H](C)CC)C(=O)N[C@@H](CC(=O)O)C(=O)N[C@@H](CCCCN)C(=O)N[C@H](C(=O)N[C@@H](Cc1c[nH]cn1)C(=O)N[C@@H](CCC(N)=O)C(=O)N[C@@H](CCC(N)=O)C(=O)N[C@@H](CC(=O)O)C(=O)N[C@@H](Cc1ccccc1)C(=O)N[C@H](C(=O)N[C@@H](CC(N)=O)C(=O)N[C@@H](Cc1c[nH]c2ccccc12)C(=O)N[C@@H](CC(C)C)C(=O)N[C@@H](CC(C)C)C(=O)N[C@@H](C)C(=O)N[C@@H](CCC(N)=O)C(=O)N[C@@H](CCCCN)C(=O)NCC(=O)N[C@@H](CCCCN)C(=O)N[C@@H](CCCCN)C(=O)N[C@@H](CC(N)=O)C(=O)N[C@@H](CC(=O)O)C(=O)N[C@@H](Cc1c[nH]c2ccccc12)C(=O)N[C@@H](CCCCN)C(=O)N[C@@H](Cc1c[nH]cn1)C(=O)N[C@@H](CC(N)=O)C(=O)N[C@H](C(=O)N[C@H](C(=O)N[C@@H](CCC(N)=O)C(=O)N[C@@H](Cc1c[nH]cn1)C(=O)O)[C@@H](C)O)[C@@H](C)CC)C(C)C)[C@@H](C)CC` [Example 55, (2,6Me-Tyr^1, Aib^2, A5c^11, Nle^14, His^43)hGIP(1-43)-OH], the inhibitory constant (Ki) in data set [1] was found to be 39 nM. The half-life at 0.1 mg/ml in data set [2] was 37.7 h; in data set [3], 16.1 h.
